Measurements reported in patent publication US20150344427A1 (EPIZYME, INC., priority 2012, published 2015).

What was measured:
WSU-DLCL2 cells = test: Cell Proliferation Analysis, WSU-DLCL2; assay type: cell-based; conditions: Homo sapiens, WSUDLCL2, 144 h, 6 days, Cell Titer Glo
Description: WSU-DLCL2 suspension cells were purchased from DSMZ (German Collection of Microorganisms and Cell Cultures, Braunschweig, Germany). RPMI/Glutamax Medium, Penicillin-Streptomycin, Heat Inactivated Fetal Bovine Serum were purchased from Life Technologies, Grand Island, N.Y., USA. V-bottom polypropylene 384-well plates were purchased from Greiner Bio-One, Monroe, N.C., USA. Cell culture 384-well white opaque plates were purchased from Perkin Elmer, Waltham, Mass., USA. Cell-Titer Glo® was purchased from Promega Corporation, Madison, Wis., USA. SpectraMax M5 plate reader was purchased from Molecular Devices LLC, Sunnyvale, Calif., USA.
WSU-DLCL2 suspension cells were maintained in growth medium (RPMI 1640 supplemented with 10% v/v heat inactivated fetal bovine serum and cultured at 37° C. under 5% CO2. Under assay conditions, cells were incubated in Assay Medium (RPMI 1640 supplemented with 20% v/v heat inactivated fetal bovine serum and 100 units/mL penicillin-streptomycin) at 37° C. under 5% CO2.
For the assessment of the effect of compounds on the proliferation of the WSU-DLCL2 cell line, exponentially growing cells were plated in 384-well white opaque plates at a density of 1250 cell/ml in a final volume of 50 μl of assay medium. A compound source plate was prepared by performing triplicate nine-point 3-fold serial dilutions in DMSO, beginning at 10 mM (final top concentration of compound in the assay was 20 μM and the DMSO was 0.2%). A 100 nL aliquot from the compound stock plate was added to its respective well in the cell plate. […] After addition of compounds, assay plates were incubated for 6 days at 37° C., 5% CO2, relative humidity >90% for 6 days. Cell viability was measured by quantization of ATP present in the cell cultures, adding 35 μl of Cell Titer Glo® reagent to the cell plates. Luminescence was read in the SpectraMax M5. The concentration inhibiting cell viability by 50% was determined using a 4-parametric fit of the normalized dose response curves.

[1] = molecular target: T1, wild-type EZH2 (PRC2 enzyme) (Homo sapiens, UniProt Q15910); test: PRC2 enzyme assay on peptide substrate, wild-type EZH2; assay type: biochemical; conditions: wild-type PRC2 enzyme 4 nM, H3K27me0 peptide, 3H-SAM Flashplate; read-out: WT EZH2 IC50
T1 construct: made in house; host or cells: Spodoptera frugiperda (sf9) cells, baculovirus
T1 sequence (Q15910 whole entry): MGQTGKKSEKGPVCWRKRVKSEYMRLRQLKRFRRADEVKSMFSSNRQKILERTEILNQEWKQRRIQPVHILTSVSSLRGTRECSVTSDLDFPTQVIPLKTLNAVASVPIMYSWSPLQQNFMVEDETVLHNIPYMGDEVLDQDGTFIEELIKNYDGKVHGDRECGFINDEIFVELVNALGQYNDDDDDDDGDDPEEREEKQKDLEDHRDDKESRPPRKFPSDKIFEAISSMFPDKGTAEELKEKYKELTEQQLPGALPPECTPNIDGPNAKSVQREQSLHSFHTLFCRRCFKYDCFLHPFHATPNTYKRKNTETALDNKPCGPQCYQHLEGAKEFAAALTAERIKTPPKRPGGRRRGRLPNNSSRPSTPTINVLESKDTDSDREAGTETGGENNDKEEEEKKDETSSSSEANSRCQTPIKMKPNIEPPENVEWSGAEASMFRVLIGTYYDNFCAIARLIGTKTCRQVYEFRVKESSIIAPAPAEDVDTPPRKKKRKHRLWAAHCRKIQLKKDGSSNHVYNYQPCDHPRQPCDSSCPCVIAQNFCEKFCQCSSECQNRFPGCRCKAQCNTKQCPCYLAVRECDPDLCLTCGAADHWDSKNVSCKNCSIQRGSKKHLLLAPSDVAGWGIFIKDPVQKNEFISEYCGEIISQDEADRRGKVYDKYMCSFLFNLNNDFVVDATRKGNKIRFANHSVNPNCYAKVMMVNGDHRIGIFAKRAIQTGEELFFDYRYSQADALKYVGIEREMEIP
T1 sequence (O75530 whole entry partner): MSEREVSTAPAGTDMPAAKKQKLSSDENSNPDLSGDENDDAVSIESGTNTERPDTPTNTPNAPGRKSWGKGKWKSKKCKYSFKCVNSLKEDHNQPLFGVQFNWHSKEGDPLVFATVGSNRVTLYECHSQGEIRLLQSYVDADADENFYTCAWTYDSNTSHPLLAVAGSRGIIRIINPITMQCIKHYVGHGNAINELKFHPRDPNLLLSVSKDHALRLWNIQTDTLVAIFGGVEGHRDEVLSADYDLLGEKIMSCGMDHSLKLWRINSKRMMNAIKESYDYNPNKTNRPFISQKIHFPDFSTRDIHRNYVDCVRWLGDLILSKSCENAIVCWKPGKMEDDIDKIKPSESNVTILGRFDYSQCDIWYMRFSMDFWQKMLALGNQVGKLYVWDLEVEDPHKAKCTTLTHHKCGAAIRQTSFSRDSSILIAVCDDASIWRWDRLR
T1 sequence (Q15022 whole entry partner): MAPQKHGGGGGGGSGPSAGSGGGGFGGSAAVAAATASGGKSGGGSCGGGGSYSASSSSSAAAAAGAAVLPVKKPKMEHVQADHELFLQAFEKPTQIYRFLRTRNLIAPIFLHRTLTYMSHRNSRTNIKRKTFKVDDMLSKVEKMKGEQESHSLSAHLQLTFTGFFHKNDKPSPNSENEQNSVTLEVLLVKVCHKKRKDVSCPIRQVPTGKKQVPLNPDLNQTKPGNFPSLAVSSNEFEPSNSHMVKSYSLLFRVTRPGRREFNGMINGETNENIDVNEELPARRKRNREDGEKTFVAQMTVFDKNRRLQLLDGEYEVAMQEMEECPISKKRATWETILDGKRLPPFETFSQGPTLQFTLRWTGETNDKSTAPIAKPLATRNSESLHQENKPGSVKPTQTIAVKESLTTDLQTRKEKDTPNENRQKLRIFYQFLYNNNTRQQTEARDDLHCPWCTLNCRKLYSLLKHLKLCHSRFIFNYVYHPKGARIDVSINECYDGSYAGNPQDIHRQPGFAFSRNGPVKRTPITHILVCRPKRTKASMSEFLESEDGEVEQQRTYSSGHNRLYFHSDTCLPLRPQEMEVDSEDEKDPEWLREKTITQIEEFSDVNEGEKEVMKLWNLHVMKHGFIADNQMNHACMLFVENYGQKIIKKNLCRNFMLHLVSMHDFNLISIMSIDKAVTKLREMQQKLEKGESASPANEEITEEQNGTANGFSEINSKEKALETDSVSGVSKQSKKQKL
T1 sequence (Q09028 whole entry partner): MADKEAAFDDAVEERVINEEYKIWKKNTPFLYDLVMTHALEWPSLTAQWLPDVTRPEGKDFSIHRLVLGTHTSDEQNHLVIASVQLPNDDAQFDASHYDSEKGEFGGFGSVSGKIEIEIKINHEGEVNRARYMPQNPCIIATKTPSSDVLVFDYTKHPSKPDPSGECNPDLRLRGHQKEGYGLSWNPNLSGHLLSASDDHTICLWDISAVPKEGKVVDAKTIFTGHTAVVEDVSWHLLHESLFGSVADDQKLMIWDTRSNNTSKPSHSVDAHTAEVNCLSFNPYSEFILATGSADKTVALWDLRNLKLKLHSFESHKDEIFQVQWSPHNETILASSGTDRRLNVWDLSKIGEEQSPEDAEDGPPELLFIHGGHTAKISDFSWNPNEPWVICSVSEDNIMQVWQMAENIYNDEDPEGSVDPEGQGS
Description: General Materials. S-adenosylmethionine (SAM), S-adenosylhomocyteine (SAH), bicine, KCl, Tween20, dimethylsulfoxide (DMSO) and bovine skin gelatin (BSG) were purchased from Sigma-Aldrich at the highest level of purity possible. Dithiothreitol (DTT) was purchased from EMD. ^3H-SAM was purchased from American Radiolabeled Chemicals with a specific activity of 80 Ci/mmol. 384-well streptavidin Flashplates were purchased from PerkinElmer.
Peptides representative of human histone H3 residues 21-44 containing either an unmodified lysine 27 (H3K27me0) or dimethylated lysine 27 (H3K27me2) were synthesized with a C-terminal G(K-biotin) linker-affinity tag motif and a C-terminal amide cap by 21st Century Biochemicals. […] The sequences are listed below.
Human PRC2 enzymes were purified as 4-component enzyme complexes co-expressed in Spodoptera frugiperda (sf9) cells using a baculovirus expression system. […] The EED subunit contained an N-terminal FLAG tag that was used to purify the entire 4-component complex from sf9 cell lysates.
The assays were all performed in a buffer consisting of 20 mM bicine (pH=7.6), 0.5 mM DTT, 0.005% BSG and 0.002% Tween20, prepared on the day of use. Compounds in 100% DMSO (1 μL) were spotted into polypropylene 384-well V-bottom plates (Greiner) using a Platemate 2×3 outfitted with a 384-channel pipet head (Thermo). DMSO (1 μL) was added to columns 11, 12, 23, 24, rows A-H for the maximum signal control, and SAH, a known product and inhibitor of PRC2 (1 μL) was added to columns 11,12, 23, 24, rows I-P for the minimum signal control. A cocktail (40 μL) containing the wild-type PRC2 enzyme and H3K27me0 peptide or any of the Y641 mutant enzymes and H3K27me2 peptide was added by Multidrop Combi (Thermo). The compounds were allowed to incubate with PRC2 for 30 min at 25° C., then a cocktail (10 μL) containing a mixture of non-radioactive and ^3H-SAM was added to initiate the reaction (final volume=51 μL). In all cases, the final concentrations were as follows: wild-type or mutant PRC2 enzyme was 4 nM, SAH in the minimum signal control wells was 1 mM and the DMSO concentration was 1%. The assays were stopped by the addition of non-radioactive SAM (10 μL) to a final concentration of 600 μM, which dilutes the ^3H-SAM to a level where its incorporation into the peptide substrate is no longer detectable. 50 μL of the reaction in the 384-well polypropylene plate was then transferred to a 384-well Flashplate and the biotinylated peptides were allowed to bind to the streptavidin surface for at least 1 h before being washed three times with 0.1% Tween20 in a Biotek ELx405 plate washer. The plates were then read in a PerkinElmer TopCount platereader to measure the quantity of ^3H-labeled peptide bound to the Flashplate surface, measured as disintegrations per minute (dpm) or alternatively, referred to as counts per minute (cpm).
Where dpm=disintegrations per minute, cmpd=signal in assay well, and min and max are the respective minimum and maximum signal controls.
Where top and bottom are the normally allowed to float, but may be fixed at 100 or 0 respectively in a 3-parameter fit. The Hill Coefficient normally allowed to float but may also be fixed at 1 in a 3-parameter fit. Y is the % inhibition and X is the compound concentration.

| SMILES | IC50 [1] [nM] | IC50 (WSU-DLCL2 cells) [nM] |
| --- | --- | --- |
| CCN(c1cc(-c2ccc(OCCOC)cc2)cc(C(=O)NCc2c(Cl)[nH]c(C)cc2=O)c1C)[C@H]1CC[C@H](N(C)C)CC1 [Compound 92] | 38 | 4400 |
| CCn1c(C)cc(=O)c(CNC(=O)c2cc(Cl)cc(N(CC)[C@H]3CC[C@H](N(C)C)CC3)c2C)c1C [Compound 87] | 35400 | 3000 |
| CCN(c1cc(-c2ccc(OCCOC)cc2)cc(C(=O)NCc2c(C)[nH]c(C)cc2=O)c1C)[C@H]1CC[C@H](N(C)C)CC1 [Compound 93] | 5 | 1200 |
| CCN(c1cc(-c2ccc(COC)nc2)cc(C(=O)NCc2c(Cl)[nH]c(C)cc2=O)c1C)[C@H]1CC[C@H](N(C)C)CC1 [Compound 88] | 40 | 5100 |
| CCN(c1cc(-c2cnc(C)cn2)cc(C(=O)NCc2c(Cl)[nH]c(C)cc2=O)c1C)[C@H]1CC[C@H](N(C)C)CC1 [Compound 91] | 140 | 5400 |

Second part, led by results:

| IC50 [1] [nM] | SMILES | IC50 (WSU-DLCL2 cells) [nM] |
| --- | --- | --- |
| 25 | CCCN(c1cc(-c2ccc(OCCOC)cc2)cc(C(=O)NCc2c(C)[nH]c(C)cc2=O)c1C)[C@H]1CC[C@H](N(C)C)CC1 [Compound 94] | 2900 |
| 27 | CCN(c1cc(-c2ccc(OCCOC)cc2)cc(C(=O)NCc2c(C)[nH]c(C)cc2=O)c1C)[C@H]1CC[C@H](N(C)CCOC)CC1 [Compound 100] | 4200 |
| 270 | CCN(c1cc(-c2cnn(C)c2)cc(C(=O)NCc2c(Cl)[nH]c(C)cc2=O)c1C)[C@H]1CC[C@H](N(C)C)CC1 [Compound 89] | 11500 |
| 50 | CCN(c1cc(-c2ccc(C)nc2)cc(C(=O)NCc2c(Cl)[nH]c(C)cc2=O)c1C)[C@H]1CC[C@H](N(C)C)CC1 [Compound 90] | 5300 |
| 22 to 37 | CCN(c1cc(Cl)cc(C(=O)NCc2c(C)[nH]c(C)cc2=O)c1C)[C@H]1CC[C@H](N(C)C)CC1 [Compound 1, 5-chloro-N-((2,6-dimethyl-4-oxo-1,4-dihydropyridin-3-yl)methyl)-3-(((trans)-4-(dimethylamino)cyclohexyl)(ethyl)amino)-2-methylbenzamide] | 17100 |
| > 50000 | CCN(c1cc(Cl)cc(C(=O)NCc2c(C)n(C)c(C)cc2=O)c1C)[C@H]1CC[C@H](N(C)C)CC1 [Compound 86] | > 20000 |
